In patent US20260083742A1, “HOMOLOGOUS RECOMBINATION REPAIR DEFICIENCY (HRD) AS A PREDICTIVE BIOMARKER FOR TREATING CANCER WITH WEE1 INHIBITORS” (Zeno Management, Inc., priority 2023, published 2026):

Legend:
[1] = test system: uterine serous carcinoma (USC) or high-grade serous ovarian cancer (HGSOC); assay: Azenosertib in subjects with USC or HGSOC grouped by HRRm status: tumor response and progression free survival; assay type: in vivo, human; settings: for tumor size change, median: USC population, azenosertib 300 mg or more; for progression free survival: subjects treated with 300+mg azenosertib
Procedure: Subjects with uterine serous carcinoma (USC) or high-grade serous ovarian cancer (HGSOC) were treated with azenosertib and grouped by azenosertib dose of lower than 300 mg (LT300) or at or greater than 300 mg azenosertib (300+mg). […] Total subjects in parenthesis includes all subjects in the study including subjects receiving LT300.
Subjects selected in Table 1 were evaluated for tumor response when treated with doses of 300 mg or more of azenosertib or with lower than 300 mg of azenosertib. In the USC population treated with azenosertib of 300 mg or more (300+), HRRm positivity was associated with better tumor response (p=0.01). (FIG. 1B and FIG. 1C). The HRRm median was −33% and HRR wt median was −5%. […] HRRm subject population was associated with 8.3 months of progression free survival, compared to HRR wt subject population with 4.2 months progression free survival. (FIG. 1D). HRRm status was associated with better progression free survival in subjects treated with at least 300 mg azenosertib, supporting an effective dose of 300 mg or more in HRD subjects.

[2] = test system: patient-derived ovarian xenograft (PDX) models (OVA2-BUR, CTG-0703, CTG-2213); assay: Anti-tumor efficacy in ovarian PDX models; assay type: in vivo; settings: BRCA1 pathogenic mutant ovarian PDX vs BRCA1 WT / benign mutant; azenosertib 60 mg/kg, niraparib 35 mg/kg
Procedure: The OVA2-BUR model has an HRD negative/BRCA1 WT phenotype. Tumor growth inhibition was also measured using BRCA1^Glu1607Ter (pathogenic) mutant and BRCA1^Pro1099Leu (Benign) mutant PDX models.

[3] = test system: parental MDA-MB-436 TNBC cell line; assay: In vitro activity (IC50) in parental MDA-MB-436; assay type: cell-based; settings: Homo sapiens; parental MDA-MB-436; read-out: In vitro activity (IC50) Wild Type
Procedure: (§1) Cells with BRCA reversion mutations may be considered HRD+due to genome instability (such as TAI, LST, LOH). BRCA reversion mutation is an established mechanism of resistance to both platinum-based chemotherapeutic drugs and PARP inhibitors. In vivo exploration of WEE1 inhibitors (azenosertib, adavosertib) and PARP inhibitors (niraparib, olaparib) was evaluated.
(§2) MDA-MB-436 PARP inhibitor-resistant lines were generated by long-term in vitro treatment with a PARP inhibitor that is olaparib (Ola^R) or niraparib (Nir^R).

[4] = test system: MDA-MB-436 Nir^R (BRCA reversion) TNBC cell line; assay: In vitro activity (IC50) in niraparib-resistant MDA-MB-436; assay type: cell-based; settings: Homo sapiens
Procedure: as §1, §2

[5] = test system: MDA-MB-436 olaparib-resistant model; assay: MDA-MB-436 olaparib-resistant CDX model in vivo; settings: azenosertib 80 mg/kg
From the text: MDA-MB-436 PARP inhibitor-resistant lines were generated by long-term in vitro treatment with a PARP inhibitor that is olaparib (Ola^R) or niraparib (Nir^R). Resistant cells were confirmed by sequencing to have BRCA1 reversion mutation. The parental MDA-MB-436 cell line remains sensitive to PARP inhibitors as expected (FIG. 5A), while the Nir^R (FIG. 5B) and Ola^R (FIG. 5C) MDA-MB-436 cell lines are no longer sensitive to PARP inhibitors but are sensitive to azenosertib. Azenosertib activity was further confirmed in the PARP inhibitor-resistant MDA-MB-436 CDX model in vivo. […] WEE1 inhibitor or PARP inhibitor treatment in the Parental TNBC animal model (without PARP inhibitor resistance) is shown in FIG. 5D.

[6] = test system: HGSOC with HRD+ status (BRCA1m); assay: Human subject with HRD+ platinum-resistant, PARP inhibitor-resistant ovarian cancer treated with azenosertib; assay type: in vivo; settings: one subject
Procedure: A subject with HGSOC selected to have HRD+ status (e.g., BRCA1m) confirmed by qualitative next-generation sequencing based in vitro diagnostic test (FoundationOne®CDx) was administered azenosertib in accordance with an intermittent dosing schedule of at least 400 mg azenosertib once a day for five consecutive days, followed by two off days. The subject received azenosertib for five months. The subject is a person who received 7 prior lines of therapy: (1) carboplatin/paclitaxel/bevacizumab/olaparib (PD); (2) Pembrolizumab (PD); (3) NaPi2b targeting-ADC (XMT-1536) (PD); (4) carboplatin/gemcitabine/bevacizumab (PD); (5) Pegylated doxorubicin (PD); (6) Topotecan (PD); (7) PABP-1 RNP (ATRC-101) (PD).

[7] = test system: HRD+ cells UWB1289, HCC1937, COV362, HCC1569, HCC1395; assay: In vitro cell viability (CellTiter-Glo) in a panel of HRD+ cells; assay type: cell-based; settings: HRD+ cells both PARP inhibitor-sensitive and PARP inhibitor-resistant, 5 cell doublings
Procedure: Azenosertib, olaparib and AZD5305 (PARP1-selective inhibitor) were individually tested in vitro in a panel of HRD+ cells as indicated in Table 10. Briefly, cells were seeded in their recommended media at a density of 1,000 cells per well into 96 well plates. After 24 hr, drug treatment was performed and cells were incubated in a 37° C. for 5 cell doublings. Cell viability was measured using CellTiter-Glo (CTG) (Promega) according to the manufacturer's recommendations. Percent viability was calculated as percentage of cell viability relative to DMSO-only vehicle control. Dose-response curves were fit with Graphpad Prism 9 to determine IC50 values.

[8] = test system: SUM149PT TNBC xenograft (BRCA1 splice isoform Δ11q); assay: SUM149PT TNBC xenograft tumor growth inhibition; assay type: in vivo, mice
Procedure: SUM149PT is a TNBC xenograft model harboring a BRCA1 splice isoform (Δ11q) that produces a truncated, partially functional protein which thereby promotes PARP inhibitor resistance. Azenosertib monotherapy and its combination with olaparib or AZD5305 was evaluated in the SUM149PT model in vivo in mice (FIGS. 10A-10B), and Table 12 summarizes the groups and treatments. Single agent treatment with olaparib at 100 mg/kg QD (FIG. 10A) or with the PARP1 selective inhibitor, AZD5305, at 0.1 or 1 mg/kg QD (FIG. 10B) confirmed SUM149PT resistance to PARP inhibitors.

Compound: C=CCn1c(=O)c2cnc(Nc3ccc(N4CCN(C)CC4)cc3)nc2n1-c1ccc2c(n1)[C@@](O)(CC)CC2 [Azenosertib, azenosertib]
- tumor size change, median ([1]; HRR wt): −5%
- tumor size change, median ([1]; HRRm): −33%
- progression free survival ([1]; HRR wt): 4.2 months
- progression free survival ([1]; HRRm): 8.3 months
- tumor growth inhibition in HRD+ model compared to BRCA1 WT or benign BRCA1 mutant models [2]: increased tumor growth inhibition
- IC50 [3]: 282 nM
- IC50 [4]: 185 nM
- tumor volume compared to the PARP inhibitor [5]: significant reduction in tumor volume
- target lesion on scan ([6]; after treatment with azenosertib): no longer visualized
- cPR (confirmed partial response) ([6]; at least 400 mg azenosertib once a day, five days on, two off, five months, 7 prior lines): −48%
- tumor cell growth (dose response curves) [7]: reduces tumor cell growth
- TGI ([8]; monotherapy azenosertib 60 mg/kg QD 5:2): 82%
- TGI ([8]; monotherapy azenosertib 80 mg/kg QD 5:2): 91%
- TGI ([8]; monotherapy azenosertib 100 mg/kg QD 5:2): 101%
